# Reference: patent publication US10752588B2 (The Broad Institute, Inc., priority 2014, dated 2020)
# Assays:
# human D2R/β-arrestin [1] = molecular target: T1, human D2R/β-arrestin (Homo sapiens (Human), UniProt P14416); assay: β-Arrestin agonist assay (PathHunter); format: cell-based; settings: CHO-K1 cell line expressing human D2R/β-arrestin
# In short: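 After compound incubation, detection reagent (Buffer:Emerald II:Galactor-Star, 19:5:1) added and luminescence or fluorescence read.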
# human D2R/β-arrestin [2] = molecular target: T1, human D2R/β-arrestin; assay: Gi/cAMP agonist assay (Lance Ultra cAMP, Forskolin); format: cell-based; settings: CHO-K1 cell line expressing human D2R/β-arrestin
# In short: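 Cells were plated and incubated before compounds were pin-transferred and incubated for 10 min at 37 °C. Forskolin was then added to stimulate cAMP. cAMP was detected by Lance Ultra TR-FRET using Eu-cAMP tracer and ULight-anti-cAMP antibody.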
# [3] = Plasma protein binding, human; format: in vitro ADME; settings: plasma, read-out: Plasma Protein Binding % bound
# [4] = Plasma protein binding, mouse; format: in vitro ADME; settings: plasma, read-out: Plasma Protein Binding % bound
# [5] = Plasma protein binding, rat; format: in vitro ADME; settings: plasma, read-out: Plasma Protein Binding % bound
# Plasma stability, human = format: in vitro ADME
# Plasma stability, rat = format: in vitro ADME
# [6] = Microsomal stability, human; format: in vitro ADME
# [7] = Microsomal stability, rat; format: in vitro ADME
# human D2R/β-arrestin [8] = molecular target: T1, human D2R/β-arrestin; assay: cell-based; settings: β-arrestin Antagonist, CHO-K1 cell line expressing human D2R/β-arrestin; quinpirole used as agonist
# human D2R/β-arrestin [9] = molecular target: T1, human D2R/β-arrestin; assay: cell-based; settings: cAMP Antagonist, CHO-K1 cell line expressing human D2R/β-arrestin; quinpirole used as agonist
# Experimental: The detection reagents are then added, and the read-out is detected.
# Cells were prepared for assays by growing cultures for up to 2 weeks (from about 6-20 passages). A vial of frozen cells was thawed in a water bath held at 37° C. The cells were then transferred into a 50 ml tube with 10 ml growth media. The vial was rinsed with growth media and the contents transferred to the 50 ml tube. The 50 ml tube was centrifuged at 1200 rpm for 5 minutes at room temperature. […] When the cells reached about 90% confluence (approximately 3 days between passages), the cells were passaged and used for either the agonist or antagonist assays as described below.
# The cells were prepared for Gi/cAMP assays as described above. The assays were performed using a PE Lance Ultra cAMP kit (TRF0263). The cells were grown on 225 mm dishes, then washed once with 1×PBS (Cellgro) before digestion with 2.5 ml 1× Detachment reagent (DRX 92-0009) for about 2 minutes. PBS (20 ml) was then added to the plate, and the cells were transferred to a 50 ml centrifuge tube, and centrifuged at room temperature using BD Dynac III, at 1200 rpm for 5 minutes. […] The plates were then incubated at room temperature for about 30 minutes before addition of Eu-cAMP tracer solution (100, PerkinElmer) and then ULight-anti-cAMP solution (100) to each well.
# [10] = Microsomal stability, mouse
# Caco2 = Caco2 permeability; format: in vitro ADME; set-up: unit not given beside the values; settings: for Caco2 A-B: A-B direction; for Caco2 B-A: B-A direction
# Solubility in PBS = format: physicochemical; settings: aqueous buffer
# plasma protein [11] = assay: Plasma protein binding, human; format: in vitro ADME; settings: plasma, read-out: Plasma Protein Binding % bound
# plasma protein [12] = assay: Plasma protein binding, mouse; format: in vitro ADME; settings: plasma, read-out: Plasma Protein Binding % bound
# plasma protein [13] = assay: Plasma protein binding, rat; format: in vitro ADME; settings: plasma, read-out: Plasma Protein Binding % bound
# D2 = D2 (Homo sapiens (Human), UniProt P14416); assay: D2 radioligand binding assay
# Chain of D2 (P14416 whole entry): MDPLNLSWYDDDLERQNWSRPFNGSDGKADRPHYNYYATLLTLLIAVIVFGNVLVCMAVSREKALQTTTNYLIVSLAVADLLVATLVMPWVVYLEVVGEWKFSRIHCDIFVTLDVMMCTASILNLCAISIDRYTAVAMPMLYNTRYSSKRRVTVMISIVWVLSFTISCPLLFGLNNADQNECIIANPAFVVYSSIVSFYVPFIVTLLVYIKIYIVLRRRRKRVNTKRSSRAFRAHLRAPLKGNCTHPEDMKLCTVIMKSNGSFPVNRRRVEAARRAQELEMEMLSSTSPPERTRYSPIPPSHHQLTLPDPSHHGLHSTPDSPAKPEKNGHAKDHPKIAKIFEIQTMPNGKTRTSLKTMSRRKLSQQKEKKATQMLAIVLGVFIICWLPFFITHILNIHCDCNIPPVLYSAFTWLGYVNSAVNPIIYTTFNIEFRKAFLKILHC
# human D2R/β-arrestin [14] = molecular target: T1, human D2R/β-arrestin; settings: CHO-K1 cell line expressing human D2R/β-arrestin, β-arrestin and Gi/cAMP pathways, FIG. 1
# T1 sequence (P14416 whole entry): as above
EC50 (human D2R/β-arrestin [1]) [µM],EC50 (human D2R/β-arrestin [2]) [µM],fraction unbound [3],fraction unbound [4],fraction unbound [5],"Plasma Stability: % remaining after 5 hours (Plasma stability, human) [%]","Plasma Stability: % remaining after 5 hours (Plasma stability, rat) [%]",Microsomal Stability: % remaining after 60 minutes [6] [%],Microsomal Stability: % remaining after 60 minutes [7] [%],IC50 (human D2R/β-arrestin [8]) [nM],IC50 (human D2R/β-arrestin [9]) [µM],"Plasma Stability: % remaining after 5 hours (Plasma stability, mouse) [%]",Microsomal Stability: % remaining after 60 minutes [10] [%],solubility (Solubility in PBS) [µM],Structure (SMILES),Caco2 A-B (Caco2),Caco2 B-A (Caco2),fraction unbound (plasma protein [11]),fraction unbound (plasma protein [12]),fraction unbound (plasma protein [13]),Ki (D2) [nM],further results
> 30,> 30,0.022,0.04,0.021,98,88,56,27,1000 to 10000,1 to 10,96,36,–,"COc1cccc(C(NC(=O)C2CCN(CCOc3ccccc3)CC2)c2ccccc2)c1 (centres unmarked) [Compound 146, N-((3-methoxyphenyl)(phenyl)methyl)-1-(2-phenoxyethyl)piperidine-4-carboxamide]",–,–,–,–,–,–,–
> 30,10 to 30,–,–,–,100,94.5,93,100,1000 to 10000,10 to 30,97,76,452,O=C(NC(c1ccc(F)cc1)c1ccccn1)C1CCN(CCOc2ccccc2)CC1 (centres unmarked) [Compound 25],33.7,50.5,0.08,0.047,0.03,1000 to 10000,–
> 30,0.1 to 1,0.046,0.056,0.027,94.9,93.2,78,55,1000 to 10000,> 30,90.5,43,352,"O=C(NC(c1ccc(Cl)cc1)c1ccccn1)C1CCN(CCCc2ccccc2)CC1 (centres unmarked) [Compound 18, N-((4-chlorophenyl)(pyridin-2-yl)methyl)-1-(3-phenylpropyl)piperidine-4-carboxamide]",–,–,–,–,–,–,–
> 30,0.1 to 1,0.053,0.027,0.022,100,98,60,51,100 to 1000,> 30,100,39,–,"O=C(NC(c1ccc(Cl)cc1)c1cccnc1)C1CCN(CCOc2ccccc2)CC1 (centres unmarked) [Compound 111, N-((4-chlorophenyl)(pyridin-3-yl)methyl)-1-(2-phenoxyethyl)piperidine-4-carboxamide]",–,–,–,–,–,–,–
> 30,< 0.1,0.064,0.05,0.02,100,95,52,53,1000 to 10000,> 30,95,29,19,"O=C(NC(c1ccncc1)c1ccc(Cl)cc1)C1CCN(CCOc2ccccc2)CC1 (centres unmarked) [Compound 112, N-((4-chlorophenyl)(pyridin-4-yl)methyl)-1-(2-phenoxyethyl)piperidine-4-carboxamide]",–,–,–,–,–,–,–
> 30,0.1 to 1,0.037,0.026,–,94.5,–,58,55,100 to 1000,> 30,93.4,37,476,"O=C(NC(c1ccc(Cl)cc1)c1ccccn1)C1CCN(CCOc2ccccc2)CC1 (centres unmarked) [Compound 63, N-((4-chlorophenyl)(pyridin-2-yl)methyl)-1-(2-phenoxyethyl)piperidine-4-carboxamide]",25.1,19.9,–,–,–,100 to 1000,functional profile at D2R (antagonist mode) (human D2R/β-arrestin [14]): representative β-arrestin biased D2R antagonists
> 30,> 30,0.047,0.051,0.024,100,100,71,28,100 to 1000,1 to 10,98,31,197,"O=C(NC(c1ccccn1)C1CCCCC1)C1CCN(CCOc2ccccc2)CC1 (centres unmarked) [Compound 37, N-(cyclohexyl(pyridin-2-yl)methyl)-1-(2-phenoxyethyl)piperidine-4-carboxamide]",–,–,–,–,–,–,–

Structure (SMILES),EC50 (human D2R/β-arrestin [1]) [µM],EC50 (human D2R/β-arrestin [2]) [µM],fraction unbound [3],fraction unbound [4],fraction unbound [5],"Plasma Stability: % remaining after 5 hours (Plasma stability, human) [%]","Plasma Stability: % remaining after 5 hours (Plasma stability, rat) [%]",Microsomal Stability: % remaining after 60 minutes [6] [%],Microsomal Stability: % remaining after 60 minutes [7] [%],IC50 (human D2R/β-arrestin [8]) [nM],IC50 (human D2R/β-arrestin [9]) [µM],"Plasma Stability: % remaining after 5 hours (Plasma stability, mouse) [%]",Microsomal Stability: % remaining after 60 minutes [10] [%],solubility (Solubility in PBS) [µM],Caco2 A-B (Caco2),Caco2 B-A (Caco2),fraction unbound (plasma protein [11]),fraction unbound (plasma protein [12]),fraction unbound (plasma protein [13]),Ki (D2) [nM],further results
"O=C(NC(c1ccc(F)cc1)c1ccccn1)C1CCN(CCOc2ccccc2Cl)CC1 (centres unmarked) [Compound 53, 1-(2-(2-chlorophenoxy)ethyl)-N-((4-fluorophenyl)(pyridin-2-yl)methyl) piperidine-4-carboxamide]",> 30,> 30,–,–,–,100,78,42,16,< 100,< 0.1,96,3,149,27.4,23.9,0.21,0.021,0.086,100 to 1000,–
"O=C(NC(c1ccc(Cl)cc1)c1ccccc1F)C1CCN(CCOc2ccccc2)CC1 (centres unmarked) [Compound 40, N((4-chlorophenyl)(2-fluorophenyl)methyl)-1-(2-phenoxyethyl) piperidine-4-carboxamide]",> 30,> 30,–,–,–,100,90,45,57,100 to 1000,0.1 to 1,100,50,0.4,4.4,1.9,0.011,0.01,0.023,1000 to 10000,–
"O=C(NC(c1ccc(F)cc1)c1ccccn1)C1CCN(CCOc2ccccc2F)CC1 (centres unmarked) [Compound 54, 1-(2-(2-fluorophenoxy)ethyl)-N-((4-fluorophenyl)(pyridin-2-yl)methyl) piperidine-4-carboxamide]",> 30,> 30,–,–,–,96,78,70,66,100 to 1000,0.1 to 1,100,29,> 500,28.4,39.3,0.042,0.039,0.027,–,–
O=C(NC(c1ccc(F)cc1)c1ccccn1)C1CCN(CCOc2ccccc2C(F)(F)F)CC1 (centres unmarked) [Compound 52],> 30,> 30,–,–,–,84,55,46,7,< 100,< 0.1,89,7,27,12.5,9.0,0.009,0.009,0.021,–,–
